Results from EP4029502A1, “PYRAZOLINE-DERIVED COMPOUND (ENFLICOXIB) FOR USE IN THE PREVENTION AND/OR TREATMENT OF PAIN AND INFLAMMATION ASSOCIATED TO SURGERY IN MAMMALS” (Ecuphar N.V., priority 2021, dated 2022).
Where two headings read alike, the source gives them in different places.

Tests used:
[1] = system: dogs undergoing orthopaedic surgery; assay: Non-inferiority field study of postoperative pain and inflammation after orthopaedic surgery, meloxicam-controlled (SFGCMPS, VAS); type: in vivo
Description: The study was a non-inferiority, multicentre, prospective, parallel-controlled, randomized and blinded field study.
Thirty-two dogs of different breed, age and weight presenting at the veterinary practice for orthopaedic surgery were included.
Agents with analgesic effect were permitted as premedication. However, intraoperative or postoperative analgesia were not permitted.
For each dog the study lasted twelve days. Two days before surgery, all animals were weighed and underwent a thorough physical examination with clinical pathology to confirm the good health status of the animals before inclusion. Day 0 (D0) was the day dogs underwent surgery and t0h corresponded to the end of surgery (extubation). The physical examination was repeated on D0, before surgery (t-2h) and before dispatch (t8h) and again at t24h (D1) and t168 (D7) post-surgery. Clinical assessments of pain and inflammation were blindly performed on D0, before surgery (t-2h) and again at t1.5h, t3h, t5h, t8h, t24h (D1) and t168h (D7) post-surgery. The global efficacy of treatments was assessed on D7. From day D1 to day D7 post-surgery, the owners assessed the dog's wellbeing.
The primary endpoint for efficacy comprises the sum of scores for the SFGCMPS scale, which was assessed at different time points by the Investigator.
From day D1 to D7, owners daily assessed the dogs' wellbeing using scales for: • Demeanour (0=normal; 1=slightly modified; 2=moderately modified; 3=markedly modified and 4=severely modified). • Mobility (0=normal; 1=slightly impaired; 2=moderately impaired; 3=markedly impaired and 4=severely impaired). • Quality of analgesia as very satisfactory (=1); satisfactory (=2); not very satisfactory (=3); not at all satisfactory (=4).
Blood samples were collected from all animals before inclusion (≤ D-2), for routine pre-surgery blood profile. Potential adverse effects related to the products were also recorded.
Statistical Analysis was performed by use of commercially available software. All analyses used a two-sided significance level α = 0.05. […]

[2] = system: dogs undergoing experimental orthopaedic surgery; assay: Control of postoperative pain and inflammation after experimental orthopaedic (knee) surgery, Maquet Modified Procedure; type: in vivo, Beagle dogs
Experimental: The study was performed with 6 clinically healthy Beagle dogs with similar age and weight that were experimentally subjected to knee surgery (repair of cranial cruciate ligament rupture). […] All surgeries were conducted under the same preoperative, intraoperative and postoperative protocols and performed by the same surgeon. A highly standardized surgical technique, Maquet Modified Procedure (MMP) (12) was implemented.
For each dog the study lasted 17 days, including a 7-day acclimatization period. On day D-1 (approximately 24h before the intervention) the five dogs in the TG received a single oral dose (8 mg/kg) of the TP, the one dog in the CG received a single subcutaneous dose (0.1 mg/kg) of the RP. […] On day D0 all dogs underwent knee surgery in the right knee. From day D1 up to day D10 dogs were closely examined and signs of pain and discomfort were blindly evaluated and rated using the Short Form of the Glasgow Composite Pain Scale (SFGCPS) ranging from 0 to 24 (13 and http://www.newmetrica.com/cmps/). On day D-1 dogs were also examined to rule out signs of pain or discomfort.

[3] = system: dogs undergoing soft tissue surgery; type: in vivo; parameters: Vocalization (SFGCMPS average value) / Attention to wound (SFGCMPS average value) / Mobility (SFGCMPS average value) / Demeanour (SFGCMPS average value) / Posture/Activity (SFGCMPS average value) / Total SFGCMPS (average value): scale not given here
Description: The study was a single centre, prospective, parallel-controlled, randomized and blinded pilot field trial with a negative (Placebo) control to evaluate the efficacy of E-6087 in dogs undergoing elective soft tissue surgery.
Twenty dogs (17 females and 3 males) were included in the study. Dogs were of different breeds or crossbreed, ages from 3 months to 7 years and weights from 4 to 34 kg. All dogs were clinically healthy other than the condition causing the animal to go under surgery.
Two days before surgery animals were weighed, a detailed physical examination was performed, and blood samples were collected for routine haematology and biochemistry to confirm the good health status of the animals before inclusion.
Dogs were randomly allocated to receive either E-6087 or Placebo as oral tablets. E-6087 and Placebo tablets were similar (same appearance and packaging), therefore treatment administration, clinical examinations and blood sample analysis was always blind.
E-6087 was administered at the dose of 8 mg/kg on day D-1, approximately 24h before surgery scheduled time, before the first meal of the day. Placebo tablets were administered following the same posology.
Surgeries were performed in the morning, on day D0 by the Investigator (Surgeon). All surgeries were performed under the same anaesthesia protocol. Premedication was performed with medetomidine and morphine both at 0.1 ml/10 kg followed by anaesthesia maintained with Tiletamine/Zolazepam (Zoletil®). Local anaesthesia was not permitted. At the end of surgery, antibiotic therapy was administered to all dogs following the post-operative protocol stablished: amoxicillin (trihydrate) at 15 mg of amoxicillin/kg bw in a single dose.
Clinical assessments of postoperative pain and inflammation were done by the Investigator (Examining Veterinarian) using the SFGCMPS (13). Visual Analog Scales (VAS) were also used to assess pain at rest and under palpation as well as the level of inflammation.
On D0 at approximately 2 hours before surgery the Examining Veterinarian performed a physical examination and the clinical assessment of pain and inflammation to determine the basal scores. After surgery pain and inflammation were assessed at six examination time points: t1.5h, t3h, t5h (±30 minutes), t8h (±1hour), t24h and t168 (D7), when t0h corresponded to the end of surgery (extubation).
Clinical assessment of pain and inflammation included assessments of vocalization, attention to wound area, mobility, reaction to pressure at the wound area, general behaviour as well as activity and posture as per SFGCMPS. In addition, pain at rest and after palpation as well as the level of inflammation were assessed at the same time points by VAS ranging from 0 (no pain) to 100 (severe pain manifested by vocalization, aggression, and refusal to allow examination) and from 0 (no inflammation) to 100 (major inflammation as local heat, redness or paresis of the affected area).
Statistical Analysis was performed by use of commercially available software (SigmaPlot for Windows version 13.0). The area under the curve (AUC) was calculated for observable pain during the initial 8 and 24 hours, and it was considered as the primary efficacy variable. All analyses applied a two-sided significance level α = 0.05 and a power β = 80%. Demographic and baseline data were compared using the Mann-Whitney U test. Gender was compared with the Fisher exact probability test in contingency tables. Efficacy variables were analysed by repeated measures ANOVA.

[4] = 1.5h after surgery, 8 mg/kg oral on D-1
[5] = 3h after surgery, 8 mg/kg oral on D-1
[6] = 5h after surgery, 8 mg/kg oral on D-1
[7] = 8h after surgery, 8 mg/kg oral on D-1
[8] = 24h after surgery, 8 mg/kg oral on D-1

SMILES: NS(=O)(=O)c1ccc(N2N=C(C(F)(F)F)CC2c2ccc(F)cc2F)cc1 (centres unmarked) [E-6087, enflicoxib]
- level of inflammation (VAS 0-100) compared with meloxicam ([1]; at 3h, p= 0.025): lower values
- SFGCMPS (AUC), average value ([1]; initial 24 hours, TG: E-6087 8 mg/kg oral on D-1, CG: meloxicam 0.2 mg/kg s.c. or i.v. on D0, then 0.1 mg/kg oral daily D1 to D7, p=0.7962): 95.50±57.70
- SFGCMPS at each time point compared with CG ([1]; no statistically significant differences at any time point): most values were lower
- need of rescue analgesia ([2]; 10 days follow up period): None of the animals needed rescue analgesia
- potential adverse effects related to product administration ([2]; single oral dose 8 mg/kg on D-1): No potential adverse effects related to product administration were recorded
- analgesic agent in the postoperative period after orthopaedic surgery ([2]; single oral dose 8 mg/kg on D-1, SFGCPS 0-24, D1 to D10): effective
- values of AUC for the first 24 hours after surgery compared with Placebo ([3]; 8 mg/kg oral on D-1, not statistically significant (p=0.266)): almost half
- AUC for the first 8 hours compared with Placebo ([3]; 8 mg/kg oral on D-1, p=0,033): statistically significant lower values
- Attention to wound (SFGCMPS average value) [3, 4]: 0
- Demeanour (SFGCMPS average value) [3, 4]: 0.83
- Mobility (SFGCMPS average value) [3, 4]: 0.33
- Posture/Activity (SFGCMPS average value) [3, 4]: 0.17
- Pressure on wound (SFGCMPS average value) [3, 4]: 0.33
- Total SFGCMPS (average value) [3, 4]: 1.92
- Vocalization (SFGCMPS average value) [3, 4]: 0.25
- Attention to wound (SFGCMPS average value) [3, 5]: 0.08
- Demeanour (SFGCMPS average value) [3, 5]: 0.50
- Mobility (SFGCMPS average value) [3, 5]: 0
- Posture/Activity (SFGCMPS average value) [3, 5]: 0.08
- Pressure on wound (SFGCMPS average value) [3, 5]: 0.42
- Total SFGCMPS (average value) [3, 5]: 1.33
- Vocalization (SFGCMPS average value) [3, 5]: 0.25
- level of inflammation (VAS 0-100) compared with Placebo ([3]; 3 hours after surgery, p=0.021): Placebo was greater than for the group treated with E-6087
- Attention to wound (SFGCMPS average value) [3, 6]: 0.08
- Demeanour (SFGCMPS average value) [3, 6]: 0.17
- Mobility (SFGCMPS average value) [3, 6]: 0
- Posture/Activity (SFGCMPS average value) [3, 6]: 0
- Pressure on wound (SFGCMPS average value) [3, 6]: 0.50
- Total SFGCMPS (average value) [3, 6]: 0.75
- Vocalization (SFGCMPS average value) [3, 6]: 0
- Attention to wound (SFGCMPS average value) [3, 7]: 0
- Demeanour (SFGCMPS average value) [3, 7]: 0
- Mobility (SFGCMPS average value) [3, 7]: 0
- Posture/Activity (SFGCMPS average value) [3, 7]: 0
- Pressure on wound (SFGCMPS average value) [3, 7]: 0.67
- Total SFGCMPS (average value) [3, 7]: 0.50
- Vocalization (SFGCMPS average value) [3, 7]: 0
- Attention to wound (SFGCMPS average value) [3, 8]: 0
- Demeanour (SFGCMPS average value) [3, 8]: 0
- Mobility (SFGCMPS average value) [3, 8]: 0
- Posture/Activity (SFGCMPS average value) [3, 8]: 0
- Pressure on wound (SFGCMPS average value) [3, 8]: 0.50
- Total SFGCMPS (average value) [3, 8]: 0.50
- Vocalization (SFGCMPS average value) [3, 8]: 0
- AUC0→24h (SFGCMPS, observable pain) ([3]; first 24 hours after surgery, 8 mg/kg oral on D-1, primary efficacy variable): 16,0±15
- Total scores for SFGCMPS at each time point compared with Placebo ([3]; significant only at 1.5, 3 and 5 hours (p <0,001, 0.007 and 0.042)): always lower
- alleviating pain and inflammation after soft tissue surgery ([3]; single dose of 8 mg/kg): effective
